Read-outs that look alike come from different tables or passages of the source.
How the values were obtained:
Fgfr2 [1] = assay: Gene expression of Fgfr2 in MXT tumours, real-time PCR; type: in vivo, mice; conditions: for Real-time regulation ZK-PRA NR versus vehicle control / Real-time regulation ZK-PRA R versus vehicle control: Fgfr2; for Real-time regulation ZK-PRA NR versus vehicle control: non-responder tumours; for Real-time regulation ZK-PRA R versus vehicle control: responder tumours
Procedure: (§1) For further gene expression studies, the RNA of selected tumours was isolated and analysed further by GeneChip analyses and real-time PCR:
(§2) The five largest tumours from the vehicle control group were selected.
(§3) A limit was set in the ovariectomized group and that treated with 11β-(4-acetyl-phenyl)-17β-hydroxy-17α-(1,1,2,2,2-pentafluoroethyl)estra-4,9-dien-3-one: tumours having a weight higher than 100 mg were assessed as non-responders, and tumours with a weight less than 100 mg were classified as responders.
(§4) Exactly as in Test 1, the limit for response to the therapy and the non-response was set here at a tumour weight of 100 mg. The five largest tumours were selected from the control group. The RNA was isolated from the tumours, and gene expression of the biomarker candidates was determined.

Fgfr2 [2] = assay: Relative expression of Fgfr2 versus 18S rRNA in model cell lines; type: cell-based, human
Text: Relative Expression of Fgfr2 Versus 18S rRNA in 6 Model Cell Lines […]
Expression of the receptor for fibroblast growth factor 7 (Fgf7) was not regulated in the sensitive T47-D cells on treatment with ZK-PRA (1.1 times higher on treatment with ZK-PRA). Expression in the ZK-PRA-resistant T47-D without treatment was twice as high as in the sensitive T47-D cells and declined somewhat with ZK-PRA treatment to 1.3 times the value of the untreated sensitive T47-D cells. Expression in all other cells was considerably less both in normal medium and on treatment with ZK-PRA: […]

Fgf7 [3] = assay: Gene expression of Fgf7 in MXT tumours, real-time PCR; type: in vivo, mice; conditions: for Real-time regulation ZK-PRA NR versus vehicle control / Real-time regulation ZK-PRA R versus vehicle control: Fgf7; for Real-time regulation ZK-PRA NR versus vehicle control: non-responder tumours; for Real-time regulation ZK-PRA R versus vehicle control: responder tumours
Procedure: as §1, §2, §3, §4

Fgf7 [4] = assay: Gene expression of Fgf7 in MXT tumours, GeneChip (Affymetrix) analysis; type: in vivo, mice; conditions: Example 1, non-responders (>100 mg) vs responders (<100 mg)
Procedure: as §1, §2, §3

T47-D cells = assay: Proliferation assay of T47-D cells with and without FGF7; type: cell-based, human; conditions: for growth (of maximum control): 10^−11 mol/l; for inhibition at 10 µM: 10^−5 mol/l
Procedure: The influence of FGF7 on the activity of 11β-(4-acetylphenyl)-17β-hydroxy-17α-(1,1,2,2,2-pentafluoroethyl)estra-4,9-dien-3-one was investigated on T47-D cells. […] 50 ng/ml FGF7 were added to the medium, and the activity of ZK-PRA was determined in a proliferation assay.
It was thus possible to inhibit growth by 58% through withdrawal of E2.
T47-D cells proliferate only in the presence of E2, so that E2 ablation serves as check of maximum growth inhibition. In the proliferation test without Fgf7 it was thus possible to achieve a maximum inhibition of almost 60%. On addition of Fgf7 to the medium, the effect was substantially smaller and the inhibition was now only 29%. Fgf7 thus downregulates not only ER and PR, so that the target for antiestrogens and antiprogestagens is lost, but additionally acts per se as growth factor, so that antihormonal effects or ablation of hormones are compensated. Fgf7 is a potent biomarker candidate. […] This was confirmed in an independent, second in vivo experiment. Fgf7 is a unidirectional, paracrine factor which has a local effect, but is nevertheless secreted, so that investigation is required of whether an elevated Fgf7 serum level possibly correlates with a non-response to treatment with 11β-(4-acetylphenyl)-17β-hydroxy-17α-(1,1,2,2,2-pentafluoroethyl)-estra-4,9-dien-3-one.

progesterone receptor = biological target: T1, progesterone receptor (Homo sapiens, UniProt P06401); conditions: Fuhrmann et al., J. Med. Chem. 2000; cited from earlier work
T1 sequence (P06401 1-933): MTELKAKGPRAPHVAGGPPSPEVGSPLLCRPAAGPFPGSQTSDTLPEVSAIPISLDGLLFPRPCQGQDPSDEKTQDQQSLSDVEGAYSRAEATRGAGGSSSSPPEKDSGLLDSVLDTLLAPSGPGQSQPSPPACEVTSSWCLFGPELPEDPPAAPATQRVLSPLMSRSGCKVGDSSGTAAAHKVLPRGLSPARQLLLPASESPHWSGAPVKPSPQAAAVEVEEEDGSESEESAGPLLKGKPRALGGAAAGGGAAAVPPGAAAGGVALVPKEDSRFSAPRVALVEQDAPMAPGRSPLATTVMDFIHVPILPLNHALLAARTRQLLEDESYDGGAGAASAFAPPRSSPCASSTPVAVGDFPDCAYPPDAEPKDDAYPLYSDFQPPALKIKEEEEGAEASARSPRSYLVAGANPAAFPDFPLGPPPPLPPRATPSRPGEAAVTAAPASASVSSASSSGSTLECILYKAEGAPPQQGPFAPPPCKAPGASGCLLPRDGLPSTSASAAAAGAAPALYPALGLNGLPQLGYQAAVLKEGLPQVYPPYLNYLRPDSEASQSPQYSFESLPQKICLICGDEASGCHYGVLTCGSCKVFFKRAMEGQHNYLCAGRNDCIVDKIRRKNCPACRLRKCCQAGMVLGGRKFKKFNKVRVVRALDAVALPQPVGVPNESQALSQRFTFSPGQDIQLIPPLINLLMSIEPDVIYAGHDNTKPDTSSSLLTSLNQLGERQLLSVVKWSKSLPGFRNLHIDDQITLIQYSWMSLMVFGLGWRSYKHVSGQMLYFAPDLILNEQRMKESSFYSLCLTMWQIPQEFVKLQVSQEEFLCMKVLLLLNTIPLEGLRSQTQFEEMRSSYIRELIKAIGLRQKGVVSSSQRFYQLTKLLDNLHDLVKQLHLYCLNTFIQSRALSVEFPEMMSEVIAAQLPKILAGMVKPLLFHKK

MXT-M3 tumour = MXT-M3 tumour model in mice, tumour weight at end of test; type: in vivo
Text: For the test, an MXT-M3 tumour which was no longer strictly hormone-dependent was transplanted into mice.
The MXT(+) tumour model was induced in C57BLxDBA2F1 mice by intraperitoneal administration of a urethane solution. The developing mammary tumour could be transplanted further to mice with the same genetic background (syngeneic) and is still an established model. The MXT(+) model is distinguished very particularly by the fact that the tumours express both ER and PR in physiological concentrations. Although there are other hormone receptor-positive tumour models, frequently ER and PR are not functional therein and show no translocation from the cytoplasm into the nucleus after stimulation. Nor is it possible to show growth inhibition by hormone ablation here. These models are unsuitable for investigating antihormonal substances (Watson, Medina et al. 1977).
At the end of the test, the animals were sacrificed and the tumours were removed, and then the weight of the tumours was determined. The variation in the tumour weights is high in each group. The average tumour weights in the vehicle control group (427 mg) was 2.8 times higher than in the ovariectomized group (155 mg) and 2.2 times as high as in the group treated with 11β-(4-acetylphenyl)-17β-hydroxy-17α-(1,1,2,2,2-pentafluoroethyl)estra-4,9-dien-3-one (192 mg).
as §3
It was possible in the investigation of the tumour RNA of the in vivo experiment from Example 1 to identify biomarker candidates. To confirm these potential candidates, an independent animal experiment was carried out with the same study design, increasing the number of animals from ten to 20 per group. At the end of the test, the tumours were removed, the tumour weight was determined and the tumours were stored at −80° C. until RNA was isolated. The results are depicted in FIG. 2/5.
as §4

MCF-7 cells = conditions: recombinant Fgf7 added to the culture medium, Chang et al. 2006; cited from earlier work
[5] = tested on: progesterone receptor (PR-A, PR-B) in T47-D cells; assay: Western blot analysis of the progesterone receptor under the influence of FGF7; type: cell-based, human; conditions: Fgf7 20 and 50 ng/ml, 24 h and 72 h
Procedure: It is reported in the literature that FGF7 downregulates both ER and PR. In order to detect this effect, cells were incubated in medium with various amounts of FGF7 for 24 h and 72 h, and then the PR content was determined.

## CC(=O)c1ccc([C@H]2C[C@@]3(C)[C@@H](CC[C@@]3(O)C(F)(F)C(F)(F)F)[C@@H]3CCC4=CC(=O)CCC4=C32)cc1 [ZK-PRA, 11β-(4-acetylphenyl)-17β-hydroxy-17α-(1,1,2,2,2-pentafluoroethyl)estra-4,9-dien-3-one]
Fgfr2 [1]; Example 1
  Fgfr2 expression, non-responders vs. control: 55%
  Fgfr2 expression, responder tumours vs. control: 30%
  Real-time regulation ZK-PRA NR versus vehicle control: 0.55 (±0.30)
  Real-time regulation ZK-PRA R versus vehicle control: 0.30 (±0.07)
Fgfr2 [1]; Example 2 confirmation
  Real-time regulation ZK-PRA NR versus vehicle control: 0.25 (±0.20)
  Real-time regulation ZK-PRA R versus vehicle control: 0.47 (±0.34)
Fgfr2 [2]; BT-474 cells
  Fgfr2 mRNA on treatment compared with untreated T47-D cells: 37 times lower
Fgfr2 [2]; MCF-7 cells
  Fgfr2 mRNA on treatment compared with untreated sensitive T47-D cells: 153 times lower
Fgfr2 [2]; ZK-PRA-resistant T47-D cells
  Fgfr2 expression on treatment relative to untreated sensitive T47-D cells: 1.3 times
Fgfr2 [2]; ZR75-1 cells
  Fgfr2 expression on treatment compared with T47-D under normal conditions: 9.4 times lower
Fgfr2 [2]; sensitive T47-D cells
  Fgfr2 expression on treatment relative to untreated: 1.1 times higher
Fgf7 [3]; Example 1
  Fgf7 expression in non-responder tumours relative to vehicle controls: 3.12 times
  Fgf7 expression in responder tumours compared with the controls: 70%
  Real-time regulation ZK-PRA NR versus vehicle control: 3.12 (±0.68)
  Real-time regulation ZK-PRA R versus vehicle control: 0.69 (±0.38)
Fgf7 [3]; Example 2 confirmation
  Real-time regulation ZK-PRA NR versus vehicle control: 3.25 (±1.91)
  Real-time regulation ZK-PRA R versus vehicle control: 1.72 (±0.68)
Fgf7 [4]
  Affymetrix regulation ZK-PRA NR versus ZK-PRA R: 2.30 (±0.33)
T47-D cells; FGF7 50 ng/ml
  growth (of maximum control): 114%
T47-D cells; without FGF7
  growth (of maximum control): 114%
T47-D cells; Fgf7 50 ng/ml in the culture medium, no dose-response relation
  maximum growth inhibition: about 20%
T47-D cells; Homo sapiens, T47D, FGF7 50 ng/ml in the medium, read-out: growth inhibition
  inhibition at 10 µM: 24%
T47-D cells; Homo sapiens, T47D, without FGF7, maximum control (E2) = 100%, read-out: growth inhibition
  inhibition at 10 µM: 42%
T47-D cells; Homo sapiens, T47D, 10^−6 mol/l, without FGF7, read-out: growth inhibition
  inhibition at 1 µM: 47%
T47-D cells; Homo sapiens, T47D, 10^−7 mol/l, without FGF7, read-out: growth inhibition
  inhibition at 0.1 µM: 50%
T47-D cells; next lower concentration after 10^−5 mol/l, FGF7 50 ng/ml
  growth inhibition: 18%
T47-D cells; sensitive T47-D cells, without FGF7
  activity in the proliferation assay: good activity
Progesterone receptor
  antiprogestational activity: high antiprogestational activity
MXT-M3 tumour; Example 1, treated group, end of test
  average tumour weight: 192 mg
MXT-M3 tumour; Example 1, vehicle 427 mg
  average tumour weight of vehicle control group relative to treated group: 2.2 times
MXT-M3 tumour; Example 2 confirmation experiment, treated group
  average tumour weight: 215 mg
MXT-M3 tumour; Example 2 confirmation experiment, vehicle 577 mg
  average tumour weight of vehicle control group relative to treated group: 2.7 times

## CC/C(=C(\c1ccccc1)c1ccc(OCCN(C)C)cc1)c1ccccc1 [tamoxifen]
MCF-7 cells
  activity in proliferation tests: no activity

B1: Fgf7: Fibroblast growth factor 7, secreted glycoprotein; recombinant Fgf7 added to culture medium (protein, UniProt P21781 32-194, looked up)
Fibroblast growth factor 7: CNDMTPEQMATNVNCSSPERHTRSYDYMEGGDIRVRRLFCRTQWYLRIDKRGKVKGTQEMKNNYNIMEIRTVAVGIVAIKGVESEFYLAMNKEGKLYAKKECNEDCNFKELILENHYNTYASAKWTHNGGEMFVALNQKGIPVRGKKTKKEQKTAHFLPMAIT
[5]
  amount of PR (Western blot): distinct decrease in PR

— US20080311594A1, “USE OF FIBROBLAST GROWTH FACTOR 7 (Fgf7) AND OF THE RECEPTOR Fgfr2b AS BIOMARKERS” (priority 2007, published 2008)
